Among the data in ChEMBL document CHEMBL1157572 (J Med Chem, 2010) are IC50 and Activity values, retold here.

The test system of experiment [1] is MKN-45. The experiment is described as follows: Antiproliferative activity against human MKN45 cells after 72 hrs by methylene blue dye assay. The format is functional, cell-based. As to conditions: MKN-45, 72 h.
Experiment [2] can be described thus: Antiproliferative activity against P-gp170/MDR expressing human KBVIN cells after 72 hrs by methylene blue dye assay. The format is functional, cell-based.
Experiment [3] has as its system HT-29. The experiment is described as follows: Antiproliferative activity against human HT-29 cells after 72 hrs by methylene blue dye assay. The format is functional, cell-based. The following applies: HT-29, 72 h.
In experiment [4] the test system is KB. The experiment is described as follows: Antiproliferative activity against human KB cells after 72 hrs by methylene blue dye assay. The format is functional, cell-based.
Experiment [5] concerns NCI-H460. The experiment is described as follows: Antiproliferative activity against human H460 cells after 72 hrs by methylene blue dye assay. The format is functional, cell-based. The following applies: NCI-H460, 72 h.
Experiment [6] is described as follows: Displacement of [3H]colchicine from tubulin by at 1 uM scintillation proximity assay. A general note: Displacement assays read how much labelled ligand stays bound in the presence of the test substance.
Experiment [7] in a line: Displacement of [3H]colchicine from tubulin by at 5 uM scintillation proximity assay.
A short description of experiment [8]: Inhibition of tubulin polymerization by turbidimetric assay.

As usually defined, the IC50 is the midpoint of a concentration-inhibition curve. On to `COc1cc(C(=O)c2cnc3ccccc3c2)cc(OC)c1OC`, for which the IC50 came to 562 nM in experiment [1]; 1100 nM in experiment [2]; 1000 nM in experiment [3]; 1800 nM in experiment [4]; 1600 nM in experiment [5].
Turning to `COc1cc(C(=O)c2ccnc3ccccc23)cc(OC)c1OC`, the IC50 amounted to 920 nM in experiment [1]; 2200 nM in experiment [2]; 2300 nM in experiment [3]; 3500 nM in experiment [4]; 3800 nM in experiment [5].
Regarding `COc1cc(C(=O)c2ccc3ncccc3c2)cc(OC)c1OC`, the IC50 in experiment [1] came out at 16.3 nM; in experiment [2], 21.5 nM; in experiment [3] it was 24.6 nM; in experiment [4] it was 24 nM; in experiment [5], 36 nM; in experiment [8], 2900 nM. For the same compound, the Activity in experiment [6] was 51%; in experiment [7] it was 72%.
As to `COc1cc(C(=O)c2ccc3c(ccc[n+]3C)c2)cc(OC)c1OC`, the 50% inhibitory concentration (IC50) in experiment [1], in experiment [2], in experiment [3], in experiment [4] and in experiment [5] was over 10000 nM each time.
As to `COc1cc(C(=O)c2ccc3c(N)c(OC)ccc3n2)cc(OC)c1OC`, the IC50 in experiment [1] is 0.3 nM; in experiment [2], 0.2 nM; in experiment [3], 0.4 nM; in experiment [4], 0.3 nM; in experiment [5] it was 0.4 nM; in experiment [8] it was 1600 nM. Besides, the Activity worked out at 90% in experiment [6] and 97% in experiment [7].
Take `COc1ccc2nc(C(=O)c3cc(OC)c(OC)c(OC)c3)ccc2c1`: the half-inhibitory concentration (IC50) was 150 nM in experiment [1]; 21.5 nM in experiment [2]; 77 nM in experiment [3]; 27.2 nM in experiment [4]; 61.5 nM in experiment [5]; 3500 nM in experiment [8]. Further, the Activity came out at 40% in experiment [6] and 68% in experiment [7].
`COc1cc(C(=O)c2cccc3cccnc23)cc(OC)c1OC`: the IC50 worked out at 3200 nM in experiment [1]; 6000 nM in experiment [2]; 4500 nM in experiment [3]; 8100 nM in experiment [4]; 5000 nM in experiment [5].
For `COc1cc(C(=O)c2ccc3ccccc3n2)cc(OC)c1OC`, the IC50 was 246 nM in experiment [1]; 117 nM in experiment [2]; 148 nM in experiment [3]; 174 nM in experiment [4]; 180 nM in experiment [5]; over 10000 nM in experiment [8].
For the compound `COc1cc(C(=O)c2ccc3cccnc3c2)cc(OC)c1OC`, the IC50 in experiment [1], in experiment [2], in experiment [3], in experiment [4] and in experiment [5] was over 10000 nM each time.
`COc1cc(C(=O)c2ccc3c(ccc[n+]3[O-])c2)cc(OC)c1OC`: the IC50 in experiment [1] came to 617 nM; in experiment [2], 764 nM; in experiment [3], 872 nM; in experiment [4], 830 nM; in experiment [5], 1100 nM.
With `COc1cc(C(=O)c2cccc3ncccc23)cc(OC)c1OC`, the IC50 in experiment [1] worked out at 1200 nM; in experiment [2], 2300 nM; in experiment [3] it was 2800 nM; in experiment [4], 2900 nM; in experiment [5], 3800 nM.
`COc1cc(C(=O)c2ccnc3c(OC)cccc23)cc(OC)c1OC`: the IC50 in experiment [1] was 147 nM; in experiment [2] it was 165 nM; in experiment [3], 162 nM; in experiment [4], 155 nM; in experiment [5], 193 nM.
For the compound `COc1ccc(/C=C\c2cc(OC)c(OC)c(OC)c2)cc1O` [COMBRETASTATIN A4], the IC50 was found to be 4.9 nM in experiment [1]; 1.9 nM in experiment [2]; 835 nM in experiment [3]; 2.4 nM in experiment [4]; 2.6 nM in experiment [5]; 2100 nM in experiment [8]. Further, the Activity stood at 87% in experiment [6] and 95% in experiment [7].
In the case of `COc1ccc2cc(C(=O)c3cc(OC)c(OC)c(OC)c3)ccc2n1`, the IC50 in experiment [1] is 138 nM; in experiment [2], 202 nM; in experiment [3] it was 206 nM; in experiment [4] it was 301 nM; in experiment [5] it was 256 nM; in experiment [8] it was over 10000 nM.
